One experiment concerns SHR-SP. The settings on record: at a low dose; cited from earlier work.
The next experiment deals with SHR-SP rats. The experiment is described as follows: 2-lever discriminative reaction task in SHR-SP rats (ADHD model). In kind it is in vivo, rat. From the text: A. Test method (1) While spontaneously hypertensive rat (SHR) is a hypertension model rat widely used in research, this lineage not only develops hypertension but also behaves similarly in the juvenile stage to patients with attention deficit/hyperactivity disorder (attention-deficit/hyperactivity disorder: ADHD), as evidenced by disrupted retention of attention and the like (Sagvolden T, Russell V A, Aase H, Johansen E B, Farshbaf M. (2005): Rodent models of attention-deficit/hyperactivity disorder. Biol Psychiatry. 57(11): 1239-47). Particularly, SHR-SP (subtype of SHR) in the juvenile stage is recently recognized as an animal model of developmental disorder such as ADHD by those of ordinary skill in the art (Ueno K I, Togashi H, Mori K, Matsumoto M, Ohashi S, Hoshino A, Fujita T, Saito H, Minami M, Yoshioka M. (2002): Behavioural and pharmacological relevance of stroke-prone spontaneously hypertensive rats as an animal model of a developmental disorder. Behav Pharmacol. 13(1): 1-13).
Thus, those of ordinary skill in the art consider that SHR-SP is suitable as an ADHD model.
Therefore, the inventor employed the SHR-SP rats and evaluated the effect of compound A on ADHD.
(2) The test was performed using 24 SHR-SP rats and 12 WKY rats (both 5-week-old; provided by CLEA Japan, Inc.). They were reared at 12 hr light-dark cycle (light was on at 7:00 am) and allowed free access to water. The feeding was restricted such that the body weight was 85% of that by free food ingestion. All rats were subjected to handling before the test.
As a test apparatus, 4 Skinner boxes each equipped with a 45 mg feed pellet feeding tray (reward delivery opening) in the center of the wall and a cue lamp and a retractable lever set on the sides of the tray were set (see FIG. 1).
(3) The rats were trained for 2 days for lever pressing-feeding associative learning. One session consisted of 30 trials or 900 sec. Two levers were presented, pressing either lever affords feed pellets (reinforcer), and a buzzer sound indicating correctness was made. Solely in the training on the initial day, feed pellets were automatically given with a buzzer every 45 seconds. All animals reached the criteria obtaining 30 feed pellets within 300 sec. (4) In the test session, a 2-lever discriminative reaction task was performed. In the 2-lever discriminative reaction task, 1 session consisted of 30 sets of ITI (inter-trial interval) for 30 sec and reaction latency for 30 sec maximum. The house lamp was turned on at the start of the session to indicate both retractable levers. The lever pressing reaction of the animal was sequentially recorded while indicating the levers until completion of 30 trials. […]

Structures are written as SMILES.

Consider two compounds from patent publication US20170128409A1, “PROPHYLACTIC OR THERAPEUTIC AGENT FOR ATTENTION DEFICIT/HYPERACTIVITY DISORDER” (Takeda Pharmaceutical Company Limited, priority 2008, published 2017).

In the case of `COC(=O)C(c1ccccc1)C1CCCCN1` (centres unmarked) [methylphenidate], the “effect on abnormal behaviors of SHR-SP” value in the experiment on SHR-SP is “improving effect”.

As to `CCC(=O)NCC[C@@H]1CCc2ccc3c(c21)CCO3` [compound A, (S)—N-[2-(1,6,7,8-tetrahydro-2H-indeno[5,4-b]furan-8-yl)ethyl]propionamide], the “transition of total number of reaction during trials (index of impulsivity)” value in the experiment on SHR-SP rats (1.0 mg/kg oral daily, up to session 4, positive drug group vs control group, FIG. 5) is reported as “similar”. In addition, the “correct answer latency (reaction latency when correct answer was selected) (index of motivation, sedation and the like)” value in the experiment with SHR-SP rats (1.0 mg/kg oral, 14 consecutive days, positive drug group vs control group, FIG. 7) is “did not show much difference”. The “number of correct answers (number of reward obtained) (index of attentional deficit)” value in the experiment with SHR-SP rats (1.0 mg/kg oral, 14 consecutive days, positive drug group vs control group, p=0.09, FIG. 6) is recorded as “tended to increase”. Also, the “total number of reaction during trials (index of impulsivity)” value in the experiment on SHR-SP rats (1.0 mg/kg oral, 14 consecutive days, session 11, positive drug group vs control group, t-test p=0.09, FIG. 5) was “tended to decrease”.
